This passage reports IC50 results from patent US11655235B2, “Pyrrolidine and piperidine compounds” (YUHAN CORPORATION, priority 2019, dated 2023).

Common to all, as to type: biochemical
In assay [1] the target is DPP4 (Homo sapiens, UniProt P27487). Description: DPP4 inhibition, fluorogenic substrate H-Gly-Pro-AMC. To be noted: recombinant human DPP4. Also noted: purchased R&D Systems.
Assay [2] deals with T1, Recombinant human FAP (Homo sapiens, UniProt Q12884).
T1 construct: purchased R&D systems
T1 sequence (Q12884 1-760): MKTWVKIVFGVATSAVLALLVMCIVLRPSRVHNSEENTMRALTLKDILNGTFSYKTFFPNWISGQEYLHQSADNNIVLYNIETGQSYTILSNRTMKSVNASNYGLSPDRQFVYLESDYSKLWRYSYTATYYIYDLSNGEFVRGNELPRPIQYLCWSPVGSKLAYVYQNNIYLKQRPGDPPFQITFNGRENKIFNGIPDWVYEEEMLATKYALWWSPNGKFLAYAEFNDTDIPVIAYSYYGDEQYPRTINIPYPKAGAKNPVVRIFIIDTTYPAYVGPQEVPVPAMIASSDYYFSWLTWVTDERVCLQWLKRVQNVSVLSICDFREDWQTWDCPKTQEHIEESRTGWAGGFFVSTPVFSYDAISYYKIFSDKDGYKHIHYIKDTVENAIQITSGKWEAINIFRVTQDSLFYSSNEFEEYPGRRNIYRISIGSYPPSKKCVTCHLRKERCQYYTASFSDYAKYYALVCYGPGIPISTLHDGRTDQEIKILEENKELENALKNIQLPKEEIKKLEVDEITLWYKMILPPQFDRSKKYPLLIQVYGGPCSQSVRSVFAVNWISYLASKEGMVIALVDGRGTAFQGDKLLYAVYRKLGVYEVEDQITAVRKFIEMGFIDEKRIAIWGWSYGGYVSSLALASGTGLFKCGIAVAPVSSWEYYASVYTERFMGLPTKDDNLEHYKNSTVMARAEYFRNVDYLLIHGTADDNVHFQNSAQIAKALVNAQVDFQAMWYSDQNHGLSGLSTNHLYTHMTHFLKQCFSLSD
Description: FAP FRET assay, FGF21-sequence FRET peptide substrate. To be noted: FRET peptide with human FGF21 sequence, 6 μM, 37° C. Summed up:
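FRET peptide bearing human FGF21 sequence (6 μM final) cleaved by 10 ng recombinant human FAP at 37° C in HEPES pH 7.2 buffer with NaCl, BSA and EDTA, DMSO up to 0.1%. Signal-rate decrease versus uninhibited control fitted to a four-variable logistic model for IC50.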

The target in assay [3] is T2, recombinant human DPP7 (Homo sapiens, UniProt Q9UHL4).
T2 construct: purchased R&D Systems
Description: DPP7 inhibition, fluorogenic substrate Lys-Pro-AMC. To be noted: recombinant human DPP7. The method, then:
The compounds according to the present technology were evaluated in terms of the inhibitory effect on the activity of dipeptidyl peptidases including FAP by using a substrate producing fluorescent substances upon enzymatic decomposition. The test was conducted at 25° C. to get a final reaction volume of 100 μL in a 96 black well plate. […] Briefly, the test compounds were dissolved in dimethyl sulfoxide (DMSO) at a concentration of 20 mM and then subjected to serial dilution, thereby creating an 8 point curve. As for the control group, a 6 point curve created by serial dilution of Talabostat in the same buffer solution was used. Fluorescence intensity was measured using a microplate reader (Flexstation3, Molecular Devices) under the wavelength condition exciting at 380 nm and reading the emission at 460 nm. The inhibitory effect of the test compounds was measured as a decrease (%) in the signal rate as compared to the control group without any inhibitor. Data was fixed to a logistic model with four variables and IC50 value was calculated using GraphPad Prism program. As for recombinant human DPP4 (R&D Systems), 25 mM tris (pH 8.0) buffer as a buffer solution and H-Gly-Pro-AMC (Bachem) as a substrate were used. As for recombinant human DPP7 (R&D Systems), 25 mM MES (pH 6.0) buffer as a buffer solution and Lys-Pro-AMC (Bachem) as a substrate were used. As for recombinant human DPP8 (PBS Bioscience), as a buffer solution, a 10 mM tris (pH 7.4) buffer comprising 10 mM of magnesium chloride and 0.05% of Tween 20, and Z-Ala-Pro-AMC (BPS Bioscience) as a substrate were used. As for recombinant human DPP9 (R&D Systems), a 25 mM tris (pH 8.0) buffer as a buffer solution and H-Gly-Pro-AMC (Bachem) as a substrate were used. As for recombinant human PREP (R&D System), as a buffer solution, a 25 mM tris (pH 7.5) buffer comprising 250 mM sodium chloride and 2.5 mM DTT (Dithiolthreitol), and Z-Gly-Pro-AMC (Bachem) as a substrate were used. The evaluation was made by using 10 ng of DPP4, PDD7, and PREP, 20 ng of DPP8, and 50 ng of DPP9 based on the final reaction. In the evaluation of DPP4, the test compounds were subjected to serial dilution in a buffer under the condition containing up to 0.1% of DMSO. In the evaluation of DPP7, DPP8, DPP9, and PREP, the test compounds were subjected to serial dilution in each buffer under the condition containing up to 0.5% of DMSO.

DPP4, sequence (P27487 whole entry): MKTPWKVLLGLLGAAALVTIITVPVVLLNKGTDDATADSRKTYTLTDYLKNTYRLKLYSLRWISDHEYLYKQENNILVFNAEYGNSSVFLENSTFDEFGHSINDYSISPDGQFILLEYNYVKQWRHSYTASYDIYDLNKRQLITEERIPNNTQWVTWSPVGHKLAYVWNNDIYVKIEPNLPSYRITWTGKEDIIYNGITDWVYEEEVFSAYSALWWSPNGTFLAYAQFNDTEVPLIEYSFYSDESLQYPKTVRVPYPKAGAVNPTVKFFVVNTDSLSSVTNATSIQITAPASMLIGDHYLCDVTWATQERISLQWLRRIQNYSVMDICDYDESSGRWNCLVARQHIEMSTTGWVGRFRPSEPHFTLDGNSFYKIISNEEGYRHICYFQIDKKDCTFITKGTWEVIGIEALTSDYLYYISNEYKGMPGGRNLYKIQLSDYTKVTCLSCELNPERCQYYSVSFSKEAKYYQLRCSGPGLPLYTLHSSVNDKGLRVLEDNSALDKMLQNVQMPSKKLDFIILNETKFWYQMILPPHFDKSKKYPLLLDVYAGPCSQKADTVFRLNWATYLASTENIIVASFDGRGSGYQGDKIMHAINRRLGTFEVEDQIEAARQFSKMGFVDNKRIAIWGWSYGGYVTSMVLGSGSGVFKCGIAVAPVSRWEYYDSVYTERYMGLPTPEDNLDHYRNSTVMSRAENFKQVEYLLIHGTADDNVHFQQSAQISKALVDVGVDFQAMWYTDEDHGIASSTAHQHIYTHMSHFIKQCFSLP

`N#C[C@@H]1C[C@H](F)CN1C(=O)CN1CC[C@@H](Nc2cnc3ncccc3c2)C1` [Example 171, (2S,4S)-4-fluoro-1-[2-[(3R)-3-(1,8-naphthyridin-3-ylamino)pyrrolidin-1-yl]acetyl]pyrrolidine-2-carbonitrile]: the values for the IC50 in assay [1], in assay [2] and in assay [3] were 2190 nM, 8.2 nM and 2790 nM, respectively.
Turning to `N#C[C@@H]1C[C@H](F)CN1C(=O)CN1CC[C@@H](Nc2ccc(F)c3ncccc23)C1` [Example 175, (2S,4S)-4-fluoro-1-[2-[(3R)-3-[(8-fluoro-5-quinolyl)amino]pyrrolidin-1-yl]acetyl]pyrrolidine-2-carbonitrile], the concentration for half-maximal inhibition (IC50) is 1690 nM in assay [1], 3.5 nM in assay [2] and 4240 nM in assay [3].
Regarding `N#C[C@@H]1CCCN1C(=O)CN1CC[C@@H](Nc2cccc3ncc(F)cc23)C1` [Example 209, (2S)-1-[2-[(3R)-3-[(3-fluoro-5-quinolyl)amino]pyrrolidin-1-yl]acetyl]pyrrolidine-2-carbonitrile], the half-inhibitory concentration (IC50) in assay [1] is 4430 nM; in assay [2], 1.7 nM; in assay [3], 7010 nM.
`N#C[C@@H]1C[C@H](F)CN1C(=O)CN1CC[C@H](Nc2ccc(C(=O)Nc3ccccc3)c3ncccc23)C1` [Example 283, N-phenyl-5-[[(3S)-1-[2-oxo-2-[(2S,4S)-2-cyano-4-fluoro-pyrrolidin-1-yl]ethyl]pyrrolidin-3-yl]amino]quinoline-8-carboxamide]: the half-inhibitory concentration (IC50) in assay [1] turned out to be 1210 nM; in assay [2], 1 nM; in assay [3], 74.3 nM.
On the same counts, the results for `N#C[C@@H]1CCCN1C(=O)CN1CC[C@H](Nc2ccc(C(=O)Nc3ccccc3)c3ncccc23)C1` [Example 287, N-phenyl-5-[[(3S)-1-[2-oxo-2-[(2S)-2-cyanopyrrolidin-1-yl]ethyl]pyrrolidin-3-yl]amino]quinoline-8-carboxamide] are 7580 nM, 1.2 nM and 904 nM.
Take `N#C[C@@H]1C[C@H](F)CN1C(=O)CN1CCC(Nc2ccnc(Br)c2)CC1` [Example 383, (2S,4S)-1-[2-[4-[(2-bromo-4-pyridyl)amino]-1-piperidyl]acetyl]-4-fluoro-pyrrolidine-2-carbonitrile]: the results for the IC50 in assay [1] and in assay [2] were 2800 nM and 39.3 nM, respectively.
On the same counts, the results for `N#C[C@@H]1C[C@H](F)CN1C(=O)CN1CCC(Nc2cccc3ncc(C(=O)Nc4ccccc4)cc23)CC1` [Example 388, 5-[[1-[2-oxo-2-[(2S,4S)-2-cyano-4-fluoro-pyrrolidin-1-yl]ethyl]-4-piperidyl]amino]-N-phenyl-quinoline-3-carboxamide] are 6890 nM and 70.2 nM.
On to `CN(Cc1ccccc1)C(=O)c1cnc2cccc(NC3CCN(CC(=O)N4C[C@@H](F)C[C@H]4C#N)CC3)c2c1` [Example 389, N-benzyl-N-methyl-5-[[1-[2-oxo-2-[(2S,4S)-2-cyano-4-fluoro-pyrrolidin-1-yl]ethyl]-4-piperidyl]amino]quinoline-3-carboxamide], for which the concentration for half-maximal inhibition (IC50) in assay [1] amounted to 3890 nM; in assay [2] it was 67.5 nM.
On to `CN(C)C(=O)c1ccc(NC2CCN(CC(=O)N3C[C@@H](F)C[C@H]3C#N)CC2)c2cccnc12` [Example 391, N,N-dimethyl-5-[[1-[2-oxo-2-[(2S,4S)-2-cyano-4-fluoro-pyrrolidin-1-yl]ethyl]-4-piperidyl]amino]quinoline-8-carboxamide], for which the figures for the 50% inhibitory concentration (IC50) in assay [1] and in assay [2] were 3500 nM and 27.5 nM, respectively.
For the compound `CN(C(=O)c1ccc(NC2CCN(CC(=O)N3C[C@@H](F)C[C@H]3C#N)CC2)c2cccnc12)c1ccccc1` [Example 392, N-methyl-5-[[1-[2-oxo-2-[(2S,4S)-2-cyano-4-fluoro-pyrrolidin-1-yl]ethyl]-4-piperidyl]amino]-N-phenyl-quinoline-8-carboxamide], the IC50 in assay [1] came to 2070 nM; in assay [2], 50.6 nM.
With `CN(Cc1ccccc1)C(=O)c1ccc(NC2CCN(CC(=O)N3C[C@@H](F)C[C@H]3C#N)CC2)c2cccnc12` [Example 393, N-benzyl-N-methyl-5-[[1-[2-oxo-2-[(2S,4S)-2-cyano-4-fluoro-pyrrolidin-1-yl]ethyl]-4-piperidyl]amino]quinoline-8-carboxamide], the results for the IC50 in assay [1] and in assay [2] were 3310 nM and 43.8 nM, respectively.
In the case of `CNC(=O)c1ccc(NC2CCN(CC(=O)N3CCC[C@H]3C#N)CC2)c2cccnc12` [Example 395, N-methyl-5-[[1-[2-oxo-2-[(2S)-2-cyanopyrrolidin-1-yl]ethyl]-4-piperidyl]amino]quinoline-8-carboxamide], the 50% inhibitory concentration (IC50) amounted to 6040 nM in assay [1] and 18.6 nM in assay [2].
Regarding `CN(Cc1ccccc1)C(=O)c1ccc(NC2CCN(CC(=O)N3CCC[C@H]3C#N)CC2)c2cccnc12` [Example 397, N-benzyl-N-methyl-5-[[1-[2-oxo-2-[(2S)-2-cyanopyrrolidin-1-yl]ethyl]-4-piperidyl]amino]quinoline-8-carboxamide], the IC50 amounted to 28500 nM in assay [1] and 38.9 nM in assay [2].
As to `CN(C(=O)c1ccc(NC2CCN(CC(=O)N3CCC[C@H]3C#N)CC2)c2cccnc12)c1ccccc1` [Example 398, N-methyl-5-[[1-[2-oxo-2-[(2S)-2-cyanopyrrolidin-1-yl]ethyl]-4-piperidyl]amino]-N-phenyl-quinoline-8-carboxamide], the half-inhibitory concentration (IC50) in assay [1] amounted to 14000 nM; in assay [2], 98.6 nM.
In the case of `CC(=O)Nc1ccc(NC2CCN(CC(=O)N3CCC[C@H]3C#N)CC2)c2cccnc12` [Example 408, N-[5-[[1-[2-oxo-2-[(2S)-2-cyanopyrrolidin-1-yl]ethyl]-4-piperidyl]amino]-8-quinolyl]acetamide], the half-inhibitory concentration (IC50) was 8190 nM in assay [1] and 12.8 nM in assay [2].
On the same counts, the results for `N#C[C@@H]1CCCN1C(=O)CN1CCC(Oc2ccnc3cc(Cl)ccc23)CC1` [Example 428, (2S)-1-[2-[4-[(7-chloro-4-quinolyl)oxy]-1-piperidyl]acetyl]pyrrolidine-2-carbonitrile] are 32600 nM and 17.3 nM.
For `N#Cc1ccc2c(OC3CCN(CC(=O)N4CCC[C@H]4C#N)CC3)cccc2n1` [Example 430, 5-[[1-[2-oxo-2-[(2S)-2-cyanopyrrolidin-1-yl]ethyl]-4-piperidyl]oxy]quinoline-2-carbonitrile], the values for the half-maximal inhibitory concentration (IC50) in assay [1] and in assay [2] were 29400 nM and 24.5 nM, respectively.
Turning to `Cc1ccc2c(OC3CCN(CC(=O)N4C[C@@H](F)C[C@H]4C#N)CC3)ccnc2c1` [Example 432, (2S,4S)-4-fluoro-1-[2-[4-[(7-methyl-4-quinolyl)oxy]-1-piperidyl]acetyl]pyrrolidine-2-carbonitrile], the results for the IC50 in assay [1] and in assay [2] were 6580 nM and 19.8 nM, respectively.
